# Source: patent US10364242B2, “Modulation of N-acylethanolamine-hydrolysing acid amidase (NAAA) for disease treatment” (FONDAZIONE ISTITUTO ITALIANO DI TECNOLOGIA, priority 2017, dated 2019)
# Experiments:
# h-NAAA [1] = molecular target: T1, h-NAAA (Homo sapiens (Human), UniProt Q02083); assay: Dialysis test (reversibility of inhibition); format: biochemical
# Target sequence in this assay (Q02083 29-359): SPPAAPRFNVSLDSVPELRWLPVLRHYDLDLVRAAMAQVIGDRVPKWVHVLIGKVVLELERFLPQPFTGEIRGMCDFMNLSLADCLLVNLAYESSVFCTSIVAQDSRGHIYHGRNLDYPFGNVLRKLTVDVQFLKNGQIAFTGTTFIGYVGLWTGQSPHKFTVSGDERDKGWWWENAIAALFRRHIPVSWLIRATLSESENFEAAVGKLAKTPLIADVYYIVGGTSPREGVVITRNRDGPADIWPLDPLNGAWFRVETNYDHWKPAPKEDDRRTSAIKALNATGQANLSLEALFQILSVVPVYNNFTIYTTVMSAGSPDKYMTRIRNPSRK
# h-NAAA [2] = molecular target: T1, h-NAAA; assay: Fluorogenic h-NAAA assay; format: biochemical; conditions: PAMCA substrate 2.0 μM, pH 4.5, 30 min pre-incubation
# Description: (§1) Human recombinant proteins were obtained from HEK-293 stable overexpressing NAAA, AC and FAAH cell lines, respectively. Cells were grown in Dulbecco's modified Eagle medium (DMEM) containing 10% FBS, 1% penicillin/streptomycin, 1% glutamine and 500 μg/mL G418. To obtain membrane preparation cells were scraped off with cold phosphate-buffered saline (PBS) and collected by centrifugation (300×g, 7 min, 4° C.). Cell pellets were stored at −80° C. until protein preparation.
# (§2) Preparation of enzyme-enriched lysate (h-NAAA and hAC). HEK-293 cells stably transfected with the human NAAA or human AC coding sequences were used as enzyme source. […] The suspension was finally ultracentrifuged at 105,000×g for 1 h at 4° C., supernatants were collected, protein concentration was measured and samples aliquoted and stored at −80° C. until use.
# The assay was run in 96-well microplates (Black OptiPlate™-96 F; PerkinElmer, Massachusetts, USA), in a total reaction volume of 200 μL. h-NAAA protein preparation (4.0 μg) was pre-incubated for 30 min with various concentrations of test compounds or vehicle control (DMSO 5%) in 100 mM citrate/phosphate buffer (pH 4.5) containing 3.0 mM DTT, 0.1% NP40 0.1%, 0.05% BSA, 150 mM NaCl. […] Fluorescence was measured with EnVision 2014 Multilabel Reader (PerkinElmer, Massachusetts, USA) using an excitation wavelength of 355 nm and emission 460 nm. […]
# Target sequence in this assay (Q02083 29-359): as above
# [3] = tested on: sciatic nerve chronic constriction injury (CCI) model of persistent hyperalgesia and allodynia; assay: Chronic Constriction Injury (CCI) of the sciatic nerve; format: in vivo; conditions: mice
# Description: Sciatic nerve ligations were performed according to Bennett and Xie (Pain. 1988, 33, 87-107). Adult male CD1 mice were anesthetized with 2-3% isoflurane, and the left sciatic nerve was exposed at mid-thigh level through a small incision and tied at two distinct sites (spaced at a 2-mm interval) with a silk thread. The wound was closed with a single muscle suture and skin clips, and dusted with streptomycin. In sham-operated animals, the nerve was exposed but not tied. All experiments were performed in a quiet room, and experimenters were blinded to the treatment protocol at the time of the test.
# Heat hyperalgesia was assessed by the method of Hargreaves et al. (Pain. 1988, 32, 77-88) measuring the latency to withdraw the hind paw from a focused beam of radiant heat (thermal intensity: infrared 3.0) applied to the plantar surface in a plantar test apparatus (Ugo Basile). The cutoff time was set at 30 s.
# Tactile allodynia (dynamic plantar esthesiometer; Ugo Basile) was assessed as described by La Rana et al. (Neuropharmacology 2008, 54,521-529) using the Von Frey dynamic plantar aesthesiometer (DPA). Animals were placed individually in a small testing arena (20 cm×18.5 cm×13 cm) with a wire mesh floor for 5 min. The DPA device was positioned beneath the animal, so that the filament was directly under the plantar surface of the paw to be tested. […] The DPA automatically records the force at which the paw is withdrawn and the withdrawal latency (latency and maximum force are directly related, because the device progressively increases force until withdrawal occurs). Mechanical hyperalgesia was recorded according to the Randall Sellito measurement.
# ARN16186 was then studied for its ability to alleviate established chronic pain condition (therapeutic effect). The compound was tested in the sciatic nerve chronic constriction injury (CCI) model of persistent hyperalgesia and allodynia in mice, a model that has both inflammatory and neuropathic pain components. ARN16186 (0.3, 1.0, 3.0 and 10 mg kg^−1, p.o.) was administered on day 7 and day 14, after left sciatic nerve ligation, and pain readouts were measured 2 h after dosing.
# h-AC (Acid Ceramidase) = h-AC (Acid Ceramidase) (Homo sapiens (Human), UniProt Q13510); assay: Fluorogenic h-AC assay; format: biochemical; conditions: pH 4.5, 10 min pre-incubation
# Description: as §1, §2
# The assay was run in 96-well microplates (Black OptiPlate™-96 F; PerkinElmer, Massachusetts, USA) in a total reaction volume of 100 μL. h-AC protein preparation (2.0 μg) was pre-incubated for 10 min with various concentrations of test compounds or vehicle control (DMSO 5%) in 25 mM sodium acetate buffer (pH 4.5). […] Fluorescence was measured with EnVision 2014 Multilabel Reader (PerkinElmer, Massachusetts, USA) using an excitation wavelength of 355 nm and emission 460 nm. […]
# h-NAAA [4] = molecular target: T1, h-NAAA; assay: Competitive Activity Based Protein Profiling (ABPP); format: biochemical; conditions: 20 μM, lysosomal extracts of h-NAAA overexpressing HEK293 cells, probe ARN14686
# Description: FIG. 1 is a picture showing the SDS-PAGE analysis resulting from the Competitive Activity Based Protein Profiling (ABPP): in summary, lysosomal extracts of h-NAAA overexpressing HEK293 cells were incubated with a vehicle (2% DMSO), ARN15393 (covalent h-NAAA inhibitor) or ARN16186, for 2 h before addition of probe ARN14686; a rhodamine fluorophore was inserted by a click chemistry. The arrow indicates NAAA;
# (§3) h-NAAA was produced and purified from h-NAAA overexpressing HEK293 cell line as described (ACS Med Chem Lett 2012, 3, 422-426). The purified enzyme was incubated in activation buffer [100 mM Sodium Phosphate/Sodium Citrate Buffer, 3 mM DL-dithiothreitol (DTT), 0.1% Triton X100, pH 4.5] for 3 h at 37° C. and the enzyme activation was checked by SDS-PAGE and Coomassie blue staining.
# For competitive ABPP, 50 μL of lysosomal enrichment (0.5 mg/mL) from of h-NAAA-overexpressing HEK293 cell line were incubated 2 h at 37° C. with ARN16186 or covalent inhibitor ARN15393^(*^) at a final concentration of 20 μM (DMSO 2%). At the end of this pre-incubation time, the activity based probe undec-10-ynyl-N—[(S)-2-oxoazetidin-3-yl]carbamate (ARN14686) (ACS Chem. Biol. 2015, 10, 2057-2064) was added at 20 μM for 15 min or for 3.5 h at 37° C. […] Samples (10 μL) were analysed by SDS-PAGE and gel florescence was scanned at 532 nm wavelength (Fuji Film FLA-9000 instrument).
# Target sequence in this assay (Q02083 29-359): as above
# [5] = molecular target: h-FAAH1 (Fatty Acid Amide Hydrolase) (Homo sapiens (Human), UniProt O00519); assay: Fluorogenic h-FAAH assay; format: biochemical; conditions: AMC arachidonoyl amide 800 nM, pH 7.4, 50 min pre-incubation
# Description: as §1
# Preparation of membrane-enriched lysate (h-FAAH). […]
# The fluorescent assay to measure FAAH activity was performed in 96 wells black plates: 2.5 μg of human FAAH-1 membrane preparation were pre-incubated for 50 min at 37° C., in 190 μL of assay buffer (50 mM TrisHCl pH 7.4, 0.05% Fatty acid-free BSA) with 5 μL of inhibitor or 5 μL DMSO to measure FAAH total activity. […] The reaction was carried out for 45 minutes at 37° C. and fluorescence was measured with EnVision 2014 Multilabel Reader (PerkinElmer, Massachusetts, USA) (excitation wavelength 355 nm/emission wavelength 460 nm). The concentration causing half-maximal inhibition (IC50) was determined by nonlinear regression analysis of the Log [concentration]/response curves generated with mean replicate values using a four-parameter Hill equation curve fitting with GraphPad Prism 5 (GraphPad Software Inc., CA, USA).
# h-NAAA [6] = molecular target: T1, h-NAAA; assay: Inhibitors recovery assay (LC/MS); format: biochemical; conditions: LC/MS recovery study, 1 μM compound, 2 h at 37° C. with h-NAAA
# Description: FIG. 2 is a histogram resulting from the inhibitors recovering assay: ordinate: % recovery of compounds after h-NAAA incubation; ARN16186 and covalent inhibitor ARN15393 were incubated with NAAA (right bars) or buffer alone (left bars) and quantified in supernatant after protein precipitation;
# as §3
# Target sequence in this assay (Q02083 29-125): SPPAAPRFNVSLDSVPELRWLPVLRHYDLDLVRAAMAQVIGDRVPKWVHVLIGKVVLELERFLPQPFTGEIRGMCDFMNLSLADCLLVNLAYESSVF
# Target sequence in this assay (Q02083 126-359): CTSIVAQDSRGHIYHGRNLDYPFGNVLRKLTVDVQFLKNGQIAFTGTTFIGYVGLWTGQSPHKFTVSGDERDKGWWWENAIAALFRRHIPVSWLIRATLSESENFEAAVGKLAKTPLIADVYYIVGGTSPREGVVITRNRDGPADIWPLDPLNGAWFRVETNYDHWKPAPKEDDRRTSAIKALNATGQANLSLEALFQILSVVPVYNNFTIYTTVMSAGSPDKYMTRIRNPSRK
# h-NAAA (25 μL of a 2 μM solution) was incubated with ARN16186 or covalent inhibitor ARN15393 at the concentration of 1 μM in activation buffer, 2 h at 37° C. Samples were next precipitated with ten volumes of acetonitrile and centrifuged 10 min at 12000×g. The supernatants were recovered and analysed by LCMS/MS for the presence of the added compound. No-protein control samples (buffer only) were used as 100% recovery reference. Compound was detected and quantified using a Waters ACQUITY UPLC/MS TQD system consisting of a TQD (Triple Quadrupole Detector) mass spectrometer, equipped with an electrospray ionization interface. […] Compound was quantified monitoring its MRM peak area. […]
# [7] = single administration 0.3, 1.0, 3.0 and 10 mg kg^−1 p.o., day 7 and day 14 after ligation, 2 h after dosing, dose-dependent
# Sequence of h-FAAH1 (Fatty Acid Amide Hydrolase) (O00519 whole entry): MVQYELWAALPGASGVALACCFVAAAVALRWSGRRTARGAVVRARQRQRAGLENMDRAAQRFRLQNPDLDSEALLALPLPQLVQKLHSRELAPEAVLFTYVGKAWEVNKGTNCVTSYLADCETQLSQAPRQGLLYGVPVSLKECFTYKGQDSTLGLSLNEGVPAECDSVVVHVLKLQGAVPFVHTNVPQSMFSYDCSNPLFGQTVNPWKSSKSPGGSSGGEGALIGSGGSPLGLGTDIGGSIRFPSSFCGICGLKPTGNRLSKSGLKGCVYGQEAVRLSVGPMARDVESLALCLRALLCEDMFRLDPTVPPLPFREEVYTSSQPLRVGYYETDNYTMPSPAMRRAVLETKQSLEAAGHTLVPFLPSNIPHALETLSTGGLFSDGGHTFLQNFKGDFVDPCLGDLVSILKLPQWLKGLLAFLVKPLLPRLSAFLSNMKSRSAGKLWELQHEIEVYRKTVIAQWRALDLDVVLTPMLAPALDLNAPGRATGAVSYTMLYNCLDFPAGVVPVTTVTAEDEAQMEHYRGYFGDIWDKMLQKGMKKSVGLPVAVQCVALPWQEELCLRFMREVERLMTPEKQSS
# Sequence of h-AC (Acid Ceramidase) (Q13510 22-395): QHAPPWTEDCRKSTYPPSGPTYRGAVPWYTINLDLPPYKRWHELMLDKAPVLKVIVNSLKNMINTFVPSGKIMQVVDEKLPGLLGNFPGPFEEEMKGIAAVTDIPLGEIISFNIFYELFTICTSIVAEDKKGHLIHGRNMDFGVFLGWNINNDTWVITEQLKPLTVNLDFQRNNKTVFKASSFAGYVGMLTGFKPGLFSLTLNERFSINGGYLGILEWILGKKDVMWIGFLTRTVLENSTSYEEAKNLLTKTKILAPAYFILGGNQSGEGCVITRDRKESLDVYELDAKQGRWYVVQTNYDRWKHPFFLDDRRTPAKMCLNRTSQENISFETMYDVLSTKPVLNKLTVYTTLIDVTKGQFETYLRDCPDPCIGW
structure (smiles),measurement,setting,value
"CCCCc1ccc(OC2CC3CCC(C2)N3S(=O)(=O)c2c(C)n[nH]c2C)cc1 (stereo not drawn) [ARN16186, (endo)-3-(4-butylphenoxy)-8-[(3,5-dimethyl-1H-pyrazol-4-yl)sulfonyl]-8-azabicyclo[3.2.1.]octane]",recovery in a dialysis test,h-NAAA [1]; after 24 h,ca. 30%
same,mode of inhibition (dialysis test),h-NAAA [1]; after 24 h dialysis,partially reversible
same,IC50,h-NAAA [2],0.023 ± 0.004 µM
same,dose with full effect on hyperalgesia and allodynia,"[3]; p.o., single administration, readout 2 h after dosing",10 mg/kg
same,mechanical hyperalgesia,[3]; [7],reduce significantly
same,tactile allodynia,[3]; [7],reduce significantly
same,thermal hyperalgesia,[3]; [7],reduce significantly
same,IC50,h-AC (Acid Ceramidase),> 30 µM
same,mechanism of inhibition,h-NAAA [4],non-covalent
same,IC50,[5],> 30 µM
same,mechanism of inhibition,h-NAAA [6],non-covalent
